Laboratory results reported in article PMC10036753, “Orally disintegrating tablets containing famotidine nanoparticles provide high intestinal absorbability via the energy-dependent endocytosis pathway” (Frontiers in Bioengineering and Biotechnology, 2023).

Columns and labels:
[1] = oral, 40 mg daily; ref Lyon, 1986; Ramchandran et al., 2011; cited from earlier work
[2] = Pharmacokinetic study of FAM tablet in the rat; assay type: in vivo, Wistar rats; details: Wistar, plasma, intravenous, single injection of FAM solution in DMSO (0.04 mg/kg) into the femoral vein
Procedure: FAM concentration was determined by HPLC using an LC-20AT HPLC system (Shimadzu Corp., Kyoto, Japan). A Luna® 5 µm C18 column (100 Å, 150 × 4.6 mm, GL Science Co., Inc., Tokyo, Japan) was used for the measurement, and the mobile phase [one-heptanesulfonic acid sodium salt/acetonitrile/methanol (25/6/1)] was followed at 0.25 mL/min. The sample was mixed with an internal standard (methyl p-hydroxybenzoate) in methanol and 10 µL of the mixture was injected into the HPLC system using an SIL-20AC HPLC auto injector. In this study, the FAM levels were measured at 254 nm (wavelength for detection).
Blood (200 μL) was collected from the right jugular vein at the indicated time intervals (0, 10, 20, 30, and 360 min). The collected blood was centrifuged at 800 × g for 15 min at 4°C, and the supernatant was used for measurement.

[3] = ref Khalifa and Abdul Rasool, 2017; cited from earlier work
[4] = without bead-milling treatment
Procedure: First, 3 mL of each FAM dispersion were incubated in 5 mL test tubes in the dark at 20°C for 28 days. Images of the FAM dispersions were captured with a digital camera. The dispersions (50 μL) were withdrawn from 5 mm under the surface at the indicated time intervals (0, 7, 14, 21, and 28 days), and the FAM concentration was measured using the HPLC methods described above. In this study, the difference in FAM concentrations before and after the start of the experiment was estimated, and the changes in FAM levels on the surface were defined as the dispersibility of the FAM dispersions.

[5] = ref Jha et al., 2014; cited from earlier work
H2 receptors = details: ref Hassan et al., 1990; Patel and Patel, 2013; cited from earlier work
[6] = Particle size distribution of FAM dispersions and redispersed FAM tablets (NanoSight LM10); assay type: physicochemical
Procedure: The characterization of the FAM tablets and their redispersion were evaluated in accordance with our previous study ([Deguchi et al., 2021]; [Nagai et al., 2022]). Briefly, the shape and dimensions of the tablets were analyzed using ImageJ image analysis software 1.53. Hardness was measured using a Force Tester MCT-2150 (A&D Co., Ltd., Toshimaku, Japan), and friability was measured using an Oriental Reaction Motor (ORIENTAL MOTOR Co., Ltd., Tokyo, Japan). The disintegration of FAM tablets was evaluated using NT-2H (TOYAMA SANGO Co. Ltd., Osaka, Japan). The friability and disintegration of the FAM tablets were measured according to the Japanese Pharmacopoeia (18th edition). The FAM tablets were dispersed in 10 mL of purified water and the redispersion, solubility, viscosity, and intestinal penetration were measured. The particle distributions of the FAM dispersions and redispersed FAM tablets were measured by […] NanoSight LM10 (Quantum Design Japan, Tokyo, Japan), and the measurement time, wavelength, and viscosity were set to 60 s, 405 nm (blue) and 1.27 mPa s, respectively. Scanning electron microscopy (SEM) images were obtained using NeoScope™ JCM-7000 (JEOL Ltd., Tokyo, Japan). […] The viscosity of the redispersed FAM tablet was measured at 20°C–40°C using an SV-1A viscometer (A&D Company, Limited, Tokyo, Japan).

## NC(N)=Nc1nc(CSCCC(N)=NS(N)(=O)=O)cs1 [FAM, Famotidine]
[1]
  Tolerability: well tolerated
[2]; read-out: Distribution volume (V d)
  Vd: 0.064 L
[2]; read-out: Elimination rate constant (k e) (converted)
  k el: 2.17e-05 s⁻¹
[3]
  BCS classification: class III
[4]
  Time after preparation at which FAM was precipitated: 24 h
[5]
  Intestinal penetration after oral administration: < 50%
H2 receptors
  Inhibitory effect relative to cimetidine: 20 fold
  Inhibitory effect relative to ranitidine: 7.5 fold
[6]; dispersion with bead-milling treatment
  Mean particle size of FAM: 108 ± 5.7 nm
[6]; dispersion without bead-milling treatment
  Mean particle size of FAM: 23.7 ± 2.1 µm
